Experimental data from patent publication US20220047687A1, “CHEMICAL SCALPEL” (FUNDACIÓN INSTITUTO DE INVESTIGACIÓN SANITARIA FUNDACIÓN …, priority 2019, published 2022).
Entries after “also recorded” stand apart in the source; their conditions may differ.

Tests used:
[1] = tested on: peritoneal carcinomatosis (DHD cells); experiment: Phase I fine-tuning of collagenase peritoneal washing on rats with peritoneal carcinomatosis
Description: For the development of the “in vivo” model, carcinomatosis was caused in 6 BDIX rats, treatment was proposed after 4 weeks. The treatment consisted of using different concentrations (370 U/mL, 2×148 U/mL, 74 U/mL, 37 U/mL, 0) of collagenase by means of peritoneal washing and it was performed in an open system by means of using a perfusion pump on 3 animals and without using any perfusion pump on 3 other animals (FIG. 3). […] The method for peritoneal washing consisted of, after giving the animals inhalation anesthesia, exposing the abdominal cavity with a longitudinal incision and filling the peritoneal cavity with collagenase diluted to the different concentrations mentioned above. Continuous washing of the peritoneum (only with Ringer's lactate) was then performed; the animals were chosen randomly in each case and treatment lasted for 10 minutes in all the animals.
Washed tissue samples as well as organs were collected for histological studies in all cases (FIG. 4).

[2] = tested on: peritoneal adhesions (polypropylene mesh); experiment: Peritoneal adhesion model group 1 (10 small polypropylene mesh pieces): mesh release; type: in vivo, rat
From the text: Intervention of 5 6-week old Wistar rats of a total of 10 rats belonging to a first group (Group 1). Prior inhalation anesthesia with Forane, the animal being shaved, and aseptic measures being implemented, a minimal opening is made in the skin and the abdominal wall to implant 10 small pieces of polypropylene mesh, five on each side of the midline. They are cut into small 0.5 cm^2 pieces previously wetted with pss (physiological saline solution (0.9% ClNa).
After that (two days later than the first intervention), intervention is performed on the remaining 5 Wistar rats of group 1, and identical follow-up of weight and wound progression, with the administration of analgesia for the next 72 hours.
Four months after the application of the intraperitoneal prostheses, the animals are operated on again for the phase final of the experiment. Before that blood is drawn. First, the experiments are performed on rats belonging to group 1. The study is randomized in pairs and single-blind (investigator). […] Next, the results obtained in each of the operated rats are collected: • 1. R13, 295 g: Dictation: “To the naked eye no meshes are found. At the mesentery and terminal ileum of the cecum there is an area that is folded over and apparently comprises small pieces of mesh. There are no adhesions to the closure of the abdominal wall. Non-traumatic entry.”

[3] = tested on: peritoneal adhesions (polypropylene mesh); experiment: Peritoneal adhesion model group 2 (4 large meshes): adhesion tear test; type: in vivo, rat; details: group 2, blind study, 0.05%; PBS control 325.76
Description: About one month later, intervention is performed on 6 additional 6-week old Wistar rats belonging to a second group (Group II). After inhalation anesthesia with Forane, the animal being shaved, and aseptic measures being implemented, laparotomy is performed with the implantation of 4 polypropylene meshes in the abdominal cavity, 2 on each side of the midline. Prior to implantation, the mesh is wetted with pss.
Secondly, experiments were performed on the rats belonging to group 2. The rats in this group were operated on, divided into two groups with 3 rats each, where a first group received 0.05% collagenase and the other placebo (PBS). After that they were subjected to an adhesion tear test, measuring the maximum pressure and the curve at which the adhesion tore. To that end, an adhesion tear measurement system was used which consisted of a high-precision digital pressure gauge that measured the pressure of a closed and rigid system with three outlets. One was a manual pressure pump, the other one was a piston with linear mobility to which clamps for pulling are fitted and which takes pressure away from the pressure gauge. The pressure needed to cause the tear of the adhesions generated in the collagenase group vs. control group was measured with this system.

MMP-1 = experiment: ELISA for collagenase residues in blood, anti-MMP-1; type: in vivo, rat; details: after treatment and the follow-up period, all animals
Description: (§1) The procedure was performed 2 times in the TCQ group, the first time with collagenase and after 2 minutes peritoneal washing with mitomycin C at the different concentrations to be tested was repeated. […] Blood was also collected from all the animals before sacrificing them, the blood was processed within the hour following its extraction to obtain plasma and to analyze, on one hand, the existence of the mutated KRAS oncogene (mutation in codon 12 of exon 1 expressed by DHD cells), and on the other hand the existence of collagenase traces or residues in blood after the peritoneal washes. A digital PCR was used for the KRAS oncogene localization study. For the collagenase trace study, the anonymized samples were sent to Lyposmol laboratories for the performance of specific anti-MMP-1 and anti-MMP-2 ELISAS.

[4] = tested on: peritoneal carcinomatosis (DHD cells); experiment: Survival and necropsy of rats with carcinomatosis after peritoneal washing (groups D, E, F); type: in vivo, rat; details: group F, collagenase 37 U/ml, 3 animals
Description: as §1
Each group initially consisted of 6 rats (2×3).

MMP-2 = experiment: ELISA for collagenase residues in blood, anti-MMP-2; type: in vivo, rat; details: after treatment and the follow-up period, all animals
Description: as §1

Substance: Collagenase
- Macroscopic observations ([1]; animal ID 1, 35 U/ml, PCI 13): All rather hematic. Implants
- Macroscopic observations ([1]; animal ID 2, 8.75 U/ml, PCI 10, pump not used): Pump is not used. Implants do
- Macroscopic observations ([1]; animal ID 3, 35 U/ml, PCI 2): Mesoderm readily separates.
- Macroscopic observations ([1]; animal ID 5, 87.5 U/ml, PCI 10): All hematic. Omentum,
- follow-up of the only animal left alive after treatment ([1]; rat, in vivo): showed no impairments or pain
- mesh and adhesion release after washing (dictation) ([2]; 0.05% in PBS, 20 ml, 20 minutes, 37° C., single rats R11, R12, R17, R18, R19 in block order): one of the balls of hypochondrium loops breaks up with slight pulling and several pieces of mesh (3) are released; also recorded: mesh seen in the omentum is readily released with slight pulling. Another mesh in the suprapubic fat is dissected and released without damaging the fatty aggregate, 6 pieces of mesh being released with digital dissection and without bleeding; also recorded: One of the meshes contained in the ball of the terminal ileum separates completely with slight pulling; also recorded: Mesh separates from the hepatic omentum with slight pulling (there are two meshes, one of them is not readily separated successfully)
- efficacy in extracting meshes ([2]; group 1, blind study randomized in pairs, 0.05%, PBS control 8%): 42%
- adhesion tear pressure [3]: 188.26 millibar
- collagenase residues in blood, MMP-1 ELISA (MMP-1): negative
- Observations (necropsy) ([4]; 1 month): Localized carcinomatoses in intestine; also recorded: No adhesions
- Observations (necropsy) ([4]; 2 months): Localized carcinomatoses in abdomen; also recorded: with nodules in liver. No adhesions
- collagenase residues in blood, MMP-2 ELISA (MMP-2): negative
